Assay: Kinetic solubility of compound at pH 6.8
Format: physicochemical
Conditions: buffer

| Compound | Kinetic_solubility [µg/mL] |
| --- | --- |
| CC(=O)N[C@H]1Cc2cccc(c2)Oc2cccc(c2)C[C@@H](C(=O)NCC(F)(F)F)NC(=O)[C@H](CCc2ccccc2)NC1=O | < 1.4 |
| O=C(NCC(F)(F)F)[C@@H]1Cc2cccc(c2)Oc2cccc(c2)C[C@H](N2CCCC2=O)C(=O)N[C@@H](CCc2ccccc2)C(=O)N1 | 3.8 |
| Cn1cc(CNC(=O)[C@@H]2Cc3cccc(c3)Oc3cccc(c3)C[C@H](N3CCCS3(=O)=O)C(=O)N[C@@H](CCN3CCCCC3)C(=O)N2)cn1 | > 140 |
| O=C(NCC(F)(F)F)[C@@H]1Cc2cccc(c2)Oc2cccc(c2)C[C@H](N2CCCC2=O)C(=O)N[C@@H](CCN2CCC(F)(F)CC2)C(=O)N1 | > 140 |
| CC(=O)N[C@H]1Cc2cccc(c2)Oc2cccc(c2)C[C@@H](C(=O)NCC(F)(F)F)NC(=O)[C@H](CCC(F)(F)F)NC1=O | < 1.2 |
| O=C(NCC(F)(F)F)[C@@H]1Cc2cccc(c2)Oc2cccc(c2)C[C@H](N2CCCC2=O)C(=O)N[C@@H](CCN2CCC[C@@H](F)C2)C(=O)N1 | > 130 |
| COC[C@@H]1NC(=O)[C@@H](NC(C)=O)Cc2cccc(c2)Oc2cccc(c2)C[C@@H](C(=O)NCC(F)(F)F)NC1=O | 14 |
| C[C@H](NC(=O)[C@@H]1Cc2cccc(c2)Oc2cccc(c2)C[C@H](N2CCCC2=O)C(=O)N[C@@H](CCN2CCCCC2)C(=O)N1)C1CC1 | > 120 |
| O=C(NCC(F)(F)F)[C@@H]1Cc2cccc(c2)Oc2cccc(c2)C[C@H](N2CCCC2=O)C(=O)N[C@@H](Cc2ccccc2)C(=O)N1 | 22 |
| CN1C(=O)[C@H](CCc2ccccc2)NC(=O)[C@@H](N2CCCC2=O)Cc2cccc(c2)Oc2cccc(c2)C[C@H]1C(=O)NCC(F)(F)F | 4.2 |
| CC(=O)N[C@H]1Cc2cccc(c2)Oc2cccc(c2)C[C@@H](C(=O)NCC(F)(F)F)NC(=O)[C@H](CC(C)C)NC1=O | < 1.4 |
| O=C(NC1CCCC1)[C@@H]1Cc2cccc(c2)Oc2cccc(c2)C[C@H](N2CCCS2(=O)=O)C(=O)N[C@@H](CCN2CCOCC2)C(=O)N1 | > 130 |
| O=C(NCC(F)(F)F)[C@@H]1Cc2cccc(c2)Oc2cccc(c2)C[C@H](N2CCOC2=O)C(=O)N[C@@H](CCN2CCCCC2)C(=O)N1 | 65 |
| Cn1cc(CNC(=O)[C@@H]2Cc3cccc(c3)Oc3cccc(c3)C[C@H](N3CCCC3=O)C(=O)N[C@@H](CCN3CCCCC3)C(=O)N2)cn1 | > 150 |
| O=C(NC1CCCC1)[C@@H]1Cc2cccc(c2)Oc2cccc(c2)C[C@H](N2CCCC2=O)C(=O)N[C@@H](CCN2CCCCC2)C(=O)N1 | > 140 |
| O=C(NCC1CC1)[C@@H]1Cc2cccc(c2)Oc2cccc(c2)C[C@H](N2CCCC2=O)C(=O)N[C@@H](CCN2CCCCC2)C(=O)N1 | > 130 |
| O=C(NCC1CC1)[C@@H]1Cc2cccc(c2)Oc2cccc(c2)C[C@H](N2CCCC2=O)C(=O)N[C@@H](CCN2CCOCC2)C(=O)N1 | > 130 |
| CCC[C@@H]1NC(=O)[C@@H](NC(C)=O)Cc2cccc(c2)Oc2cccc(c2)C[C@@H](C(=O)NCC(F)(F)F)NC1=O | < 1.9 |
| CN1C(=O)[C@H](CCc2ccccc2)N(C)C(=O)[C@@H](N2CCCC2=O)Cc2cccc(c2)Oc2cccc(c2)C[C@H]1C(=O)NCC(F)(F)F | 4 |
| CC1(CNC(=O)[C@@H]2Cc3cccc(c3)Oc3cccc(c3)C[C@H](N3CCCC3=O)C(=O)N[C@@H](CCN3CCCCC3)C(=O)N2)CC1 | > 130 |
| Cn1cc(CNC(=O)[C@@H]2Cc3cccc(c3)Oc3cccc(c3)C[C@H](NS(C)(=O)=O)C(=O)N[C@@H](CCN3CCCCC3)C(=O)N2)cn1 | > 140 |
| C[C@@H](NC(=O)[C@@H]1Cc2cccc(c2)Oc2cccc(c2)C[C@H](N2CCCC2=O)C(=O)N[C@@H](CCN2CCCCC2)C(=O)N1)C1CC1 | > 140 |
| O=C(NCC(F)(F)F)[C@@H]1Cc2cccc(c2)Oc2cccc(c2)C[C@H](N2CCCC2=O)C(=O)N[C@@H](CCN2CCCCC2)C(=O)N1 | > 140 |

— ChEMBL document CHEMBL5316314, “Structure-Activity Relationship Studies of Antimalarial Plasmodium Proteasome Inhibitors─Part II” (J Med Chem, 2023)
